Data on 19 compounds can be found in US10858360B2, “Tricyclic gyrase inhibitors” (priority 2011, dated 2020).

What all share (type): cell-based
One experiment relates to S. aureus ATCC 13709. Description: MIC, S. aureus ATCC 13709 (Alamar Blue broth microdilution). The note with it: for MIC: Staphylococcus aureus.
The test system of the next experiment is E. coli ATCC 25922. Description: MIC, E. coli ATCC 25922. The note with it: for MIC: Escherichia coli.
The subject of the next experiment is S. pneumoniae ATCC 51916. Description: MIC, S. pneumoniae ATCC 51916. Particulars: for MIC: Streptococcus pneumoniae, ATCC51916, Spn = S. pneumoniae.
For experiment [1], the system named is K. pneumoniae ATCC 700603. Description: MIC, K. pneumoniae ATCC 700603. The note with it: for MIC: Klebsiella pneumoniae, ATCC700603, read-out: MIC Kpn; for MIC Kpn: Kpn = K. pneumoniae.
For another experiment, the system named is P. aeruginosa ATCC 15692. Description: MIC, P. aeruginosa ATCC 15692. The note with it: for MIC: Pseudomonas aeruginosa, ATCC15692, Pa = P. aeruginosa.
A further experiment deals with A. baumannii ATCC 19606. Description: MIC, A. baumannii ATCC 19606. The note with it: strain not given; for MIC: Acinetobacter baumannii, ATCC19606, Ab = A. baumannii.
Setting [2] is: ATCC13709, S. aureus, Alamar Blue read after overnight incubation at 35° C.
The mark [3] stands for this setting: ATCC25922, E. coli, Alamar Blue read after overnight incubation at 35° C.
[4] abbreviates: ATCC25922, Ec = E. coli, strain not given.

SMILES strings stand for the structures. ≈ marks a conversion by molar mass, not a printed value. Like-named read-outs stand apart in the source and are kept apart here.

As for `CNc1cc(F)cc2c1[nH]c1nc(Oc3cnc(C)nc3)nc(N3C[C@@H]4[C@H](N)C[C@]4(C)C3)c12` [4.151], the MIC in the experiment with S. aureus ATCC 13709 (setting [2]) was no more than 0.5 µg/mL; with S. aureus ATCC 13709 (ATCC13709, Sa = S. aureus), no more than 0.5 µg/mL; in the experiment on E. coli ATCC 25922 (setting [3]), no more than 0.5 µg/mL; in the experiment with E. coli ATCC 25922 (setting [4]), no more than 0.5 µg/mL; with S. pneumoniae ATCC 51916, no more than 0.5 µg/mL; in experiment [1], 1 µg/mL (≈ 2.23 µM). The MIC was 1 µg/mL (≈ 2.23 µM) against P. aeruginosa ATCC 15692 and no more than 0.5 µg/mL against A. baumannii ATCC 19606.
As to `CNc1cc(F)cc2c1[nH]c1nc(Oc3cnc(C)nc3)nc(N3CC4NCCC4(C)C3)c12` (stereo not drawn) [4.157], the MIC against S. aureus ATCC 13709 (setting [2]) is no more than 0.5 µg/mL; against S. aureus ATCC 13709 (ATCC13709, Sa = S. aureus), no more than 0.5 µg/mL; against E. coli ATCC 25922 (setting [3]) it was no more than 0.5 µg/mL; against E. coli ATCC 25922 (setting [4]) it was no more than 0.5 µg/mL; against S. pneumoniae ATCC 51916, no more than 0.5 µg/mL; in experiment [1], 4 µg/mL (≈ 8.92 µM). For the same compound, the values for the MIC against P. aeruginosa ATCC 15692 and in the experiment on A. baumannii ATCC 19606 were 8 µg/mL (≈ 17.8 µM) and no more than 0.5 µg/mL, respectively.
As to `CNc1cc(F)cc2c1[nH]c1nc(Oc3cnc(C)nc3)nc(N3C[C@@H]4[C@H](C3)[C@@]4(N)C(N)=O)c12` [4.160], the MIC was no more than 0.5 µg/mL in the experiment on S. aureus ATCC 13709 (setting [2]); no more than 0.5 µg/mL against S. aureus ATCC 13709 (ATCC13709, Sa = S. aureus); 2 µg/mL (≈ 4.32 µM) in the experiment on E. coli ATCC 25922 (setting [3]); 2 µg/mL (≈ 4.32 µM) against E. coli ATCC 25922 (setting [4]); no more than 0.5 µg/mL in the experiment with S. pneumoniae ATCC 51916; greater than 16 µg/mL in experiment [1]. Moreover, the MIC against P. aeruginosa ATCC 15692 and against A. baumannii ATCC 19606 was greater than 16 µg/mL each time.
Regarding `CNc1cc(F)cc2c1[nH]c1nc(Oc3cnc(C(C)O)nc3)nc(N3CC4C[C@@H](N)C4C3)c12` (stereo partly drawn) [4.409], the MIC was no more than 0.5 µg/mL in the experiment on S. aureus ATCC 13709 (setting [2]); no more than 0.5 µg/mL against S. aureus ATCC 13709 (ATCC13709, Sa = S. aureus); no more than 0.5 µg/mL against E. coli ATCC 25922 (setting [3]); no more than 0.5 µg/mL in the experiment with E. coli ATCC 25922 (setting [4]); no more than 0.5 µg/mL in the experiment with S. pneumoniae ATCC 51916; 4 µg/mL (≈ 8.61 µM) in experiment [1]. Moreover, the MIC against P. aeruginosa ATCC 15692 and against A. baumannii ATCC 19606 was 1 µg/mL (≈ 2.15 µM) each time.
As for `CNc1cc(F)cc2c1[nH]c1nc(Oc3cnc(C(C)O)nc3)nc(N3CC4(CC[C@H]4N)C3)c12` (stereo partly drawn) [4.410], the MIC is no more than 0.5 µg/mL with S. aureus ATCC 13709 (setting [2]); no more than 0.5 µg/mL in the experiment with S. aureus ATCC 13709 (ATCC13709, Sa = S. aureus); no more than 0.5 µg/mL in the experiment on E. coli ATCC 25922 (setting [3]); no more than 0.5 µg/mL with E. coli ATCC 25922 (setting [4]); no more than 0.5 µg/mL in the experiment on S. pneumoniae ATCC 51916; 2 µg/mL (≈ 4.31 µM) in experiment [1]. Further, the values for the MIC in the experiment with P. aeruginosa ATCC 15692 and with A. baumannii ATCC 19606 were 1 µg/mL (≈ 2.15 µM) and 2 µg/mL (≈ 4.31 µM), respectively.
Consider `CNc1cc(F)cc2c1[nH]c1nc(Oc3ccc(C#N)nc3)nc(N3C[C@H]4C[C@@H]3C[C@H]4N)c12` [4.434], for which the minimal inhibitory concentration (MIC) with S. aureus ATCC 13709 (setting [2]) was no more than 0.5 µg/mL; in the experiment with S. aureus ATCC 13709 (ATCC13709, Sa = S. aureus), no more than 0.5 µg/mL; against E. coli ATCC 25922 (setting [3]), no more than 0.5 µg/mL; against E. coli ATCC 25922 (setting [4]), no more than 0.5 µg/mL; with S. pneumoniae ATCC 51916, no more than 0.5 µg/mL; in experiment [1], 1 µg/mL (≈ 2.25 µM). Besides, the MIC was 1 µg/mL (≈ 2.25 µM) against P. aeruginosa ATCC 15692 and no more than 0.5 µg/mL with A. baumannii ATCC 19606.
Consider `CNc1cc(F)c(F)c2c1[nH]c1nc(Oc3cnc(C)nc3)nc(N3CC4(CCC4N)C3)c12` (stereo not drawn) [5.01], for which, in the experiment with S. aureus ATCC 13709 (Sa = S. aureus), the “MIC Sa” value is no more than 0.5 µg/mL. For the same compound, the “MIC Ec” value in the experiment with E. coli ATCC 25922 (Ec = E. coli, strain not given) was no more than 0.5 µg/mL. For the same compound, the “MIC Spn” value with S. pneumoniae ATCC 51916 is no more than 0.5 µg/mL. In addition, the “MIC Kpn” value in experiment [1] worked out at 1 µg/mL (≈ 2.21 µM). Moreover, the “MIC Pa” value against P. aeruginosa ATCC 15692 was no more than 0.5 µg/mL. In the experiment on A. baumannii ATCC 19606, the “MIC Ab” value was no more than 0.5 µg/mL.
Consider `CNc1cc(F)c(F)c2c1[nH]c1nc(Oc3cnc(N)nc3)nc(N3CC(N)C4(CC4)C3)c12` (stereo not drawn) [5.11], for which the “MIC Sa” value is no more than 0.5 µg/mL in the experiment with S. aureus ATCC 13709 (S. aureus, Alamar Blue read after overnight incubation at 35° C.) and no more than 0.5 µg/mL with S. aureus ATCC 13709 (Sa = S. aureus). The “MIC Ec” value in the experiment on E. coli ATCC 25922 (E. coli, Alamar Blue read after overnight incubation at 35° C.) is no more than 0.5 µg/mL; with E. coli ATCC 25922 (Ec = E. coli, strain not given), no more than 0.5 µg/mL. The “MIC Spn” value with S. pneumoniae ATCC 51916 is no more than 0.5 µg/mL. The “MIC Kpn” value in experiment [1] came to 4 µg/mL (≈ 8.82 µM). Further, the “MIC Pa” value in the experiment with P. aeruginosa ATCC 15692 is 4 µg/mL (≈ 8.82 µM). Moreover, in the experiment with A. baumannii ATCC 19606, the “MIC Ab” value was determined as 2 µg/mL (≈ 4.41 µM).
In the case of `CNc1c(F)ccc2c1[nH]c1nc(Oc3cnc(C)nc3)nc(N3CC[C@@H](N)C3)c12` [6.01], the MIC in the experiment on S. aureus ATCC 13709 (setting [2]) was no more than 0.5 µg/mL; in the experiment with E. coli ATCC 25922 (setting [3]) it was 1 µg/mL (≈ 2.45 µM).
Take `CNc1c(F)ccc2c1[nH]c1nc(Oc3cncnc3)nc(N3CC4C(N)C4C3)c12` (stereo not drawn) [6.02]: the “MIC Sa” value in the experiment with S. aureus ATCC 13709 is no more than 0.5 µg/mL. Moreover, the “MIC Ec” value against E. coli ATCC 25922 was no more than 0.5 µg/mL.
On to `CNc1c(F)ccc2c1[nH]c1nc(Oc3cnc4cccnc4c3)nc(N3CC(N)C4(CC4)C3)c12` (stereo not drawn) [6.03], for which the “MIC Sa” value in the experiment on S. aureus ATCC 13709 was no more than 0.5 µg/mL. In addition, in the experiment on E. coli ATCC 25922, the “MIC Ec” value was no more than 0.5 µg/mL.
For the compound `CNc1cc(C(F)(F)F)cc2c1[nH]c1nc(Oc3cnc(C)nc3)nc(N3CC4C(N)C4C3)c12` (stereo not drawn) [6.10], the “MIC Sa” value in the experiment with S. aureus ATCC 13709 is no more than 0.5 µg/mL. In addition, the “MIC Ec” value in the experiment on E. coli ATCC 25922 was no more than 0.5 µg/mL.
In the case of `CNc1cc(Cl)cc2c1[nH]c1nc(Oc3cncnc3)nc(N3CCC4(CC4N)C3)c12` (stereo not drawn) [6.11], in the experiment on S. aureus ATCC 13709, the “MIC Sa” value is no more than 0.5 µg/mL. The “MIC Ec” value in the experiment with E. coli ATCC 25922 was no more than 0.5 µg/mL.
In the case of `CNc1cc(Cl)cc2c1[nH]c1nc(Oc3cncnc3)nc(N3CC4(CC4N)C3)c12` (stereo not drawn) [6.12], the “MIC Sa” value with S. aureus ATCC 13709 is no more than 0.5 µg/mL. The “MIC Ec” value in the experiment with E. coli ATCC 25922 was no more than 0.5 µg/mL.
Consider `CNc1cc(Cl)cc2c1[nH]c1nc(Oc3cnc(C)nc3)nc(N3CC4CCCNC4C3)c12` (stereo not drawn) [6.13], for which the “MIC Sa” value against S. aureus ATCC 13709 was no more than 0.5 µg/mL. Also, the “MIC Ec” value in the experiment on E. coli ATCC 25922 is no more than 0.5 µg/mL.
For `CNc1cc(Cl)cc2c1[nH]c1nc(Oc3cnc4cccnc4c3)nc(N3CCCC4(CC4N)C3)c12` (stereo not drawn) [6.14], the “MIC Sa” value in the experiment with S. aureus ATCC 13709 is no more than 0.5 µg/mL. In the experiment with E. coli ATCC 25922, the “MIC Ec” value worked out at 1 µg/mL (≈ 2 µM).
For `CNc1cc(Cl)cc2c1[nH]c1nc(Oc3cnc(N)nc3)nc(N3CCC4(CC4N)C3)c12` (stereo not drawn) [6.15], in the experiment on S. aureus ATCC 13709, the “MIC Sa” value is no more than 0.5 µg/mL. Moreover, the “MIC Ec” value against E. coli ATCC 25922 was no more than 0.5 µg/mL.
Regarding `CNc1cc(Cl)cc2c1[nH]c1nc(Oc3cnc(N)nc3)nc(N3CC4CC(N)C4C3)c12` (stereo not drawn) [6.16], in the experiment on S. aureus ATCC 13709, the “MIC Sa” value is no more than 0.5 µg/mL. Moreover, the “MIC Ec” value against E. coli ATCC 25922 was 1 µg/mL (≈ 2.21 µM).
As for `CNc1cc(Cl)cc2c1[nH]c1nc(Oc3cnc(N)nc3)nc(N3CC4C(N)C4C3)c12` (stereo not drawn) [6.17], the “MIC Sa” value in the experiment on S. aureus ATCC 13709 was no more than 0.5 µg/mL. For the same compound, the “MIC Ec” value against E. coli ATCC 25922 is no more than 0.5 µg/mL.
